In the supplement of paper PMC10307832:

How the values were obtained:
Test in all cases: relative viability (nuclei count vs DMSO), 5 days (fraction); higher = more cells survive
Carfilzomib = compound: CC(C)C[C@H](NC(=O)[C@H](CCc1ccccc1)NC(=O)CN1CCOCC1)C(=O)N[C@@H](Cc1ccccc1)C(=O)N[C@@H](CC(C)C)C(=O)[C@@]1(C)CO1 [Carfilzomib]
Procedure, shortened: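 Viability here means nuclei in treated wells divided by nuclei in vehicle wells, reported as the median across plates. Only plates with control CV below 25% and at least one doubling passed. Lung cancer cell lines in 1536-well plates were exposed to five √10-spaced library-drug doses for 5 days and counted from 4× Hoechst images in MetaXpress.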

Carfilzomib + Foretinib = compound: CC(C)C[C@H](NC(=O)[C@H](CCc1ccccc1)NC(=O)CN1CCOCC1)C(=O)N[C@@H](Cc1ccccc1)C(=O)N[C@@H](CC(C)C)C(=O)[C@@]1(C)CO1 [Carfilzomib] + COc1cc2c(Oc3ccc(NC(=O)C4(C(=O)Nc5ccc(F)cc5)CC4)cc3F)ccnc2cc1OCCCN1CCOCC1 [Foretinib] (partner 0.25 µM)
Procedure, shortened: (§1)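 The day after seeding in 1536-well plates, lung cancer cell lines were treated by pin tool with a single drug, or with a fixed anchor-drug dose together with five library-drug doses (not always all listed) in √10 steps. After 5 days, a combined fix-and-stain solution (final 0.05% Triton X-100, 1% formaldehyde, 1 ug/ml Hoechst) was added. Nuclei counted on 4× images gave relative viability as treated counts over vehicle counts, reported as the median of duplicate plates.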

Crizotinib + OSI-027 = compound: C[C@@H](Oc1cc(-c2cnn(C3CCNCC3)c2)cnc1N)c1c(Cl)ccc(F)c1Cl [Crizotinib] + COc1cccc2cc(-c3nc([C@H]4CC[C@H](C(=O)O)CC4)n4ncnc(N)c34)[nH]c12 [OSI-027] (partner 0.5 µM)
Procedure, shortened: as §1

Cell Line	relative viability (Carfilzomib; 0.001 µM)	relative viability (Carfilzomib; 0.003162 µM)	relative viability (Carfilzomib; 0.01 µM)	relative viability (Carfilzomib; 0.03162 µM)	relative viability (Carfilzomib; 0.1 µM)	relative viability (Carfilzomib + Foretinib; first compound 0.001 µM)	relative viability (Carfilzomib + Foretinib; first compound 0.003162 µM)	relative viability (Carfilzomib + Foretinib; first compound 0.01 µM)	relative viability (Carfilzomib + Foretinib; first compound 0.03162 µM)	relative viability (Carfilzomib + Foretinib; first compound 0.1 µM)	relative viability (Crizotinib + OSI-027; first compound 0.01 µM)	relative viability (Crizotinib + OSI-027; first compound 0.03162 µM)	relative viability (Crizotinib + OSI-027; first compound 0.1 µM)	relative viability (Crizotinib + OSI-027; first compound 1 µM)	relative viability (Crizotinib + OSI-027; first compound 0.3162 µM)
NCI-H1915	0.954	1.08	0.871	1	0.184	1.09	1.09	1.05	1.04	0.203	0.563	0.63	0.636	0.608	
SW 1573	0.957	1.18	0.77	0.173	0.0655	0.934	1.27	0.884	0.725	0.0812	0.538	0.609	0.563	0.587	0.59
NCI-H2087	0.989	1.06	0.586	0.0747	0.0676	1.03	1.15	0.693	0.0563	0.0605	0.442	0.611	0.548	0.327	
BEN	0.902	1.09	0.944	0.843	0.433	0.575	0.69	0.577	0.577	0.339	0.308	0.3	0.296	0.286	0.307
NCI-H1650	0.986	0.975	0.341	0.141	0.186	1.22	0.965	0.954	0.125	0.321	0.554	0.624	0.585	0.569	0.54
A-427	0.936	1.15	0.957	0.479	0.134	1.02	1.13	1.09	0.474	0.121	0.352	0.447	0.414	0.441	
CAL-12T	0.933	1.19	1.1	0.736	0.138	1.08	1.1	1.06	0.807	0.103	0.639	0.71	0.67	0.586	
EPLC-272H	0.845	1.22	0.834	0.242	0.0648	0.901	0.764	0.601	0.0828	0.0461	0.312	0.253	0.287	0.259	0.252
NCI-H23	0.847	1.14	0.856	0.172	0.161	0.873	1.11	1.09	0.188	0.134	0.631	0.58	0.66	0.541	
NCI-H1563	0.945	1.08	1.03	0.934	0.613	0.927	1.08	0.968	0.828	0.517	0.705	0.766	0.753	0.766	0.727
H3255	0.973	1.09	1.11	0.718	0.373	0.876	0.952	0.939	0.815	0.327	0.6	0.652	0.633	0.61	0.509
NCI-H1355	0.876	1.04	1.01	0.946	0.18	0.995	1.07	1.03	0.714	0.198	0.358	0.44	0.394	0.361	0.369
UMC-11	0.947	1.03	0.987	0.854	0.578	0.996	1.05	1.06	0.944	0.299	0.418	0.472	0.523	0.46	0.434
NCI-H1395	0.764	1.08	0.669	0.437	0.34	0.981	1.07	0.954	0.527	0.329	0.601	0.631	0.623	0.563	0.496
EMC-BAC-2	0.957	1.18	1.04	0.972	0.432	1.02	1.08	1.12	0.975	0.221	0.431	0.391	0.342	0.36	0.295
PC-3 [JPC-3]	1	1.07	1.09	0.896	0.39	1.02	1.01	1.05	0.889	0.279	0.786	0.802	0.76	0.745	0.683
NCI-H1734	0.972	1.04	0.904	0.354	0.124	0.876	1.06	0.954	0.401	0.105	0.592	0.606	0.473	0.555	
HOP-62	1.04	1.09	0.92	0.251	0.106	1.12	1.13	0.938	0.328	0.0784	0.816	0.84	0.822		0.765
HARA	0.996	1.09	1.2	0.427	0.126	0.93	0.963	1.1	0.0689	0.0561	0.543	0.504	0.46	0.432	
NCI-H2023	1.01	0.965	0.944	0.436	0.0808	0.957	0.896	0.894	0.948	0.0777	0.354	0.438	0.359	0.329	0.297
NCI-H1993	0.943	0.999	1.01	0.818	0.426	0.798	0.865	0.81	0.778	0.444	0.564	0.507	0.543	0.563	0.516
